Experimental data: the NIST ThermoML archive (doi:10.1021/je900596d)

Conditions: 343.18 K, Liquid, Vibrating tube method

FC(F)=C(F)C(F)(F)F [hexafluoropropene]
Conditions	mass density [kg/m3]
2323.3 kPa	1027.29
2331.8 kPa	1027.71
2340.3 kPa	1028.3
2348.6 kPa	1028.71
2357.9 kPa	1029.39
2367.9 kPa	1029.94
2376.2 kPa	1030.38
2386.7 kPa	1030.85
2396.9 kPa	1031.35
2403.7 kPa	1031.5
2413.7 kPa	1032.28
2426.4 kPa	1032.67
2437.3 kPa	1033.33
2447 kPa	1034.04
2457.9 kPa	1034.52
2464 kPa	1034.92
2470.6 kPa	1035.47
2480.5 kPa	1035.86
2486.7 kPa	1036.28
2497.1 kPa	1037.07
2503.3 kPa	1037.46
2522.8 kPa	1038.69
2540.4 kPa	1039.48
2556.8 kPa	1040.31
2578.1 kPa	1041.52
2596.9 kPa	1042.44
2616.9 kPa	1043.45
2632.9 kPa	1044.34
2650.6 kPa	1045.42
2671.6 kPa	1046.57
2693 kPa	1047.89
2710.6 kPa	1048.77
2730.2 kPa	1049.48
2747.6 kPa	1050.19
2764.4 kPa	1050.73
2782.1 kPa	1051.54
2799.6 kPa	1052.3
2815.7 kPa	1053.03
2831.9 kPa	1053.99
2852.2 kPa	1055
2887.1 kPa	1056.99
2909.8 kPa	1058.07
2930.4 kPa	1058.89
2950.3 kPa	1059.55
2967.4 kPa	1060.2
2986 kPa	1061.16
3013.7 kPa	1062.17
3046.6 kPa	1063.75
3078.2 kPa	1064.77
3103.6 kPa	1065.88
3134.8 kPa	1067.08
3168.5 kPa	1068.48
3201.9 kPa	1069.74
3235.7 kPa	1071.04
3266.7 kPa	1072.23
3300.3 kPa	1073.66
3332 kPa	1075.03
3361.4 kPa	1076.36
3394.9 kPa	1077.6
3430.3 kPa	1078.63
3463.3 kPa	1079.82
3496.3 kPa	1081.01
3518.3 kPa	1081.82
3550.7 kPa	1083.01
3586.6 kPa	1084.11
3619.2 kPa	1085.32
3651.4 kPa	1086.39
3686 kPa	1087.66
3728.2 kPa	1089.03
3764.5 kPa	1090.25
3805.5 kPa	1091.78
3846.6 kPa	1092.95
3882.5 kPa	1093.89
3923.8 kPa	1095.4
3956.8 kPa	1096.28
3999.1 kPa	1097.44
4049.2 kPa	1099.28
4092.3 kPa	1100.59
4134.3 kPa	1101.91
4183.8 kPa	1102.89
4226.9 kPa	1104.11
4279.1 kPa	1105.63
4326.3 kPa	1106.67
4369.2 kPa	1107.87
4410.8 kPa	1109.1
4451.8 kPa	1110.42
4504 kPa	1111.78
4556.4 kPa	1112.8
4599.1 kPa	1114.05
4697.6 kPa	1116.51
4742.5 kPa	1117.74
4786.3 kPa	1118.99
4833.9 kPa	1120.08
4887.4 kPa	1121.18
4933.1 kPa	1122.24
4985.1 kPa	1123.76
5029 kPa	1124.72
5073.9 kPa	1125.85
5132.4 kPa	1127.18
5174 kPa	1128.12
5238.1 kPa	1129.48
5301.9 kPa	1130.82
5346.6 kPa	1131.66
5387.9 kPa	1132.67
5429.7 kPa	1133.71
5474 kPa	1134.83
5517.7 kPa	1135.51
5596.3 kPa	1137.23
5658.9 kPa	1138.61
5702.1 kPa	1139.38
5743.1 kPa	1140.46
5803.5 kPa	1141.76
5846.3 kPa	1142.59
5891.3 kPa	1143.58
5933.5 kPa	1144.39
5995 kPa	1145.68
6036 kPa	1146.23
6160 kPa	1148.79
6218.2 kPa	1149.66
6324.7 kPa	1151.65
6365.2 kPa	1152.43
6407.3 kPa	1153.32
6470.4 kPa	1154.32
6550 kPa	1155.81
6660.8 kPa	1157.92
6725.9 kPa	1159.01
6839.7 kPa	1161.35
6887 kPa	1162.02
6930.3 kPa	1162.69
6976.6 kPa	1163.25
7038.7 kPa	1164.35
7080.9 kPa	1165.18
7123.3 kPa	1165.76
